What all share (design): species or system Ruminococcus gnavus ATCC 29149
For assay [1], the target named is T1, RgCBM40 (Mediterraneibacter gnavus (Ruminococcus gnavus), UniProt A7B557). In words: Sialoglycan microarray binding of RgCBM40. To be noted: for Binding of RgCBM40 on sialoglycan microarray: RgCBM40 at 20 µg ml^−1; for Binding intensity on sialoglycan microarray, fold less: RgCBM40, βR1-linked glycans. The method, then: (§1) Glycan microarrays were fabricated using epoxide-derivatized slides as previously described. Printed glycan microarray slides were blocked by ethanolamine, washed and dried. Slides were then fitted in a multi-well microarray hybridisation cassette (AHC4X8S, ArrayIt, Sunnyvale, CA, USA) to divide into 8 subarrays. The subarrays were blocked with ovalbumin (1% w/v) in PBS (pH 7.4) for 1 h at room temperature, with gentle shaking. Subsequently, the blocking solution was removed and diluted protein samples of RgCBM40 and RgGH33 D282A with various concentrations were added to each subarray. After incubating the samples for 2 h at room temperature with gentle shaking, the slides were washed. Diluted anti-His-HiLyte Flour 555 antibodies in PBS were added to the subarrays, incubated for 1 h at room temperature, washed and dried. The microarray slides were scanned by Genepix 4000B microarray scanner (Molecular Devices Corp., Union City, CA, USA). The data analysis was performed using Genepix Pro 7.0 analysis software (Molecular Devices Corp.). It is important to note that glycans on the array with sialic acid O-acetyl groups undergo gradual losses of these labile ester groups. Therefore, definitive conclusions about 9-O-acetylation are only possible in instances wherein binding is exclusively to the O-acetylated sialoglycan spot, and not to the corresponding non-O-acetylated spot.
T1 sequence (A7B557 entry or part of it): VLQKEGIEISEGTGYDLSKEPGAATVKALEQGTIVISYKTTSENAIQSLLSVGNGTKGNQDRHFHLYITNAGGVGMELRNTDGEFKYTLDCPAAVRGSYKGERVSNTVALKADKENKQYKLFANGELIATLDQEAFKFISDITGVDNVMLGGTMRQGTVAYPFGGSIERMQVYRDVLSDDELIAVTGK

Assay [2] concerns the target T1, RgCBM40. The assay is described as follows: STD NMR of sialoglycans with RgCBM40 WT. To be noted: 1 mM sialoglycan, 50 μM RgCBM40 WT, 288 K; 'exception' = monosaccharides for which binding was not detected. The method, then: ^1H and ^13C resonance assignment for all the sugars was performed on the bases of 1D ^1H, 2D DQF-COSY, TOCSY, HSQC and NOESY experiments run on the free ligands in unbuffered D2O, pH 7.0. For STD NMR experiments, all the samples consisted of 1 mM sialoglycans and 50 μM RgCBM40 (WT or I95A mutant) in D2O buffer solution of 10 mM Tris-d11 pH 7.8 and 100 mM NaCl (ligand: protein ratio 20:1). An STD pulse sequence that included 2.5 ms and 5 ms trim pulses and a 3 ms spoil gradient was used. Saturation was achieved applying a train of 50 ms Gaussian pulses (0.40 mW) on the f2 channel, at 0.60 p.p.m. (on-resonance experiments) and 40 p.p.m. (off-resonance experiments). The broad protein signals were removed using a 40 ms spinlock (T1ρ) filter. All the experiments were recorded at ^1H frequency of 800.23 MHz on a Bruker Avance III spectrometer equipped with a 5 mm probe TXI 800 MHz H-C/N-D-05 Z BTO, at 288 K. For all the sialoglycans in the presence of RgCBM40, an STD experiment with a saturation time of 2 s and a relaxation delay of 5 s was performed, as a first test for binding. For the confirmed binders, the STD NMR experiments were carried out at different saturation times (0.5, 1, 2, 3, 4 and 5 s) with 1 K scans and relaxation delay of 5 s, in order to obtain the binding epitope mapping. The resulting build-up curves for each proton were fitted mathematically to a mono-exponential equation (y = a×[1-exp(b×x)]), from which the initial slopes (a×b) were obtained. For each ligand, the binding epitope mapping was obtained by dividing the initial slopes by the one of the H7 proton of the corresponding sialic acid ring, to which an arbitrary value of 100% was assigned. This normalisation of the STD values allows the comparison across all the sialoglycans.

The target of assay [3] is T1, RgCBM40. The assay is described as follows: ITC of sialoglycans binding to RgCBM40 wild type. To be noted: RgCBM40 WT; for Kd: ITC in PBS, 115-230 μM protein in cell, syringe 10 mM sugar (25 mM for Neu5Ac), * = estimate only, Kd too high to determine. The method, then:
Isothermal titration calorimetry (ITC) experiments were performed using the PEAQ-ITC system (Malvern, Malvern, UK) with a cell volume of 200 µl. Prior to titration protein samples were exhaustively dialysed into PBS. The ligand was dissolved in the dialysis buffer. The cell protein concentration was 115 µM (except for mutant I95A where it was 173 µM and the wild-type interaction with 6′SL where it was 230 µM) and the syringe ligand concentration was 10 mM (25 mM for Neu5Ac). Controls with titrant (sugar) injected into buffer only were subtracted from the data. Analysis was performed using Malvern software, using a single-binding site model. The stoichiometry of binding sites was set to 1.0 as this was evident from the crystal structure. Quantitative and most qualitative experiments were carried out in triplicate.

The next assay relates to RgGH33 D282A. The assay is described as follows: Sialoglycan microarray binding of RgGH33 D282A. The settings on record: RgGH33 D282A at 200 µg ml^−1. The method, then: as §1

Where “and” joins values, the source holds several entries; their conditions need not be identical. Equal entries are not always repeated. Entries after “also recorded” stand apart in the source; their conditions may differ. Where two headings read alike, the source gives them in different places.

For Neu5,9Ac2-TF9Ac2α2-3TF, on RgCBM40 [1], the “Binding of RgCBM40 on sialoglycan microarray” value was “bound”.

A word on the Kd: it is the equilibrium constant for the complex coming apart. On to `O=C(CO)N[C@H]1[C@H]([C@H](O)[C@H](O)CO)OC(O)(C(=O)O)C[C@@H]1O` (stereo partly drawn) [Neu5Gc], for which, on RgCBM40 [2], the “Binding to RgCBM40 detected by STD NMR” value is reported as “exception; also recorded: no interaction was observed”. The “Binding to RgCBM40 (in words)” value at RgCBM40 [3] is “weak binding”. Further, on RgCBM40 [3] (read-out: Kd), the Kd was ~21 mM and ~20 mM.

Regarding `CC(=O)N[C@H]1[C@H]([C@H](O)[C@H](O)CO)OC(OC[C@H]2OC(O)[C@H](O)[C@@H](O)[C@H]2O)(C(=O)O)C[C@@H]1O` (stereo partly drawn) [6′SGal, Neu5Acα6 Gal], the “Binding to RgCBM40 detected by STD NMR” value at RgCBM40 [2] was “detected”.

As for `O=C(CO)N[C@H]1[C@H]([C@H](O)[C@H](O)CO)O[C@@](O[C@H]2[C@@H](O)[C@@H](CO)O[C@@H](O[C@H]3[C@H](O)[C@@H](O)C(O)O[C@@H]3CO)[C@@H]2O)(C(=O)O)C[C@@H]1O` (stereo partly drawn) [3′SLGc, Neu5Gcα3Lac], on RgCBM40 [2], the “Binding to RgCBM40 detected by STD NMR” value is recorded as “detected”. The Kd at RgCBM40 [3] (Kd) was 2.69 mM and ~3 mM.

`CC(=O)N[C@H]1[C@H]([C@H](O)[C@H](O)CO)O[C@](OC[C@H]2O[C@@H](O[C@H]3[C@H](O)[C@@H](NC(C)=O)C(O)O[C@@H]3CO)[C@H](O)[C@@H](O)[C@H]2O)(C(=O)O)C[C@@H]1O` (stereo partly drawn) [6′SLN, Neu5Acα6LacNAc]: the “Binding to RgCBM40 detected by STD NMR” value on RgCBM40 [2] is “detected”.

In the case of Neu5Acα2-3TF, the “Binding of RgCBM40 on sialoglycan microarray” value on RgCBM40 [1] is “bound”.

Consider `CC(=O)N[C@H]1[C@H]([C@H](O)[C@H](O)COC(C)=O)O[C@@](O[C@H]2[C@@H](O)[C@@H](CO)O[C@@H](OCCCN=[N+]=[N-])[C@@H]2O)(C(=O)O)C[C@@H]1O` [Neu5,9Ac2α3GalβR1], for which, on RgCBM40 [1], the “Binding of RgCBM40 on sialoglycan microarray” value is “highest binding”.

Regarding Neu5Acα6GalαOC3H6N3 [Neu5Ac-STn], the “Binding to RgCBM40 detected by STD NMR” value at RgCBM40 [2] is given as “detected”.

Consider `CC(=O)NC1C(O)CC(OC2C(O)C(CO)OC(OC3C(O)C(CO)OC(O)C3NC(C)=O)C2O)(C(=O)O)OC1C(O)C(O)CO` (stereo not drawn) [STF, Neu5Acα3Galβ3GalNAc], for which the “Binding of RgGH33 D282A on sialoglycan microarray” value with RgGH33 D282A is reported as “interacted weakly”.

With `CC(=O)NC1C(O)CC(OC2C(O)C(CO)OC(OC3C(O)C(CO)OC(OCCCN=[N+]=[N-])C3NC(C)=O)C2O)(C(=O)O)OC1C(O)C(O)CO` (stereo not drawn) [STFαOC3H6N3], on RgCBM40 [2], the “Binding to RgCBM40 detected by STD NMR” value was “detected”.

On to Neu5Gcα3Galβ3GalNAcβR1 [Neu5Gc-TF], for which the “Binding intensity on sialoglycan microarray, fold less” value on RgCBM40 [1] is 5–10 fold.

In the case of Neu5,9Ac2α2-6Tn, the “Binding of RgCBM40 on sialoglycan microarray” value on RgCBM40 [1] is listed as “bound”.

For the molecule Neu5Acα2-6Tn, on RgCBM40 [1], the “Binding of RgCBM40 on sialoglycan microarray” value was “bound”.

With α2-3-sialylated Lewis X [3′SLX], the “Binding of RgCBM40 on sialoglycan microarray” value on RgCBM40 [1] was “bound”.

With Neu5Gcα6GalαOC3H6N3 [Neu5Gc-STn], the “Binding to RgCBM40 detected by STD NMR” value on RgCBM40 [2] is recorded as “detected”.

With Neu5Acα3Lacβ [GM3], the “Binding of RgGH33 D282A on sialoglycan microarray” value with RgGH33 D282A was “interacted weakly”.

For the molecule `O=C(CO)N[C@H]1[C@H]([C@H](O)[C@H](O)CO)O[C@@](OC[C@H]2O[C@@H](O[C@H]3[C@H](O)[C@@H](O)C(O)O[C@@H]3CO)[C@H](O)[C@@H](O)[C@H]2O)(C(=O)O)C[C@@H]1O` (stereo partly drawn) [6′SLGc, Neu5Gcα6Lac], the “Binding to RgCBM40 detected by STD NMR” value at RgCBM40 [2] was “detected”. On RgCBM40 [3] (Kd), the dissociation constant Kd is ~11 mM and > 10 mM.

As to `CC(=O)N[C@H]1C2OC(C(=O)O)(C[C@@H]1O)O[C@@H]2[C@H](O)CO` (stereo partly drawn) [2,7-anhydro-Neu5Ac], the “Binding to RgCBM40 detected by STD NMR” value at RgCBM40 [2] is reported as “exception”.

For `CC(=O)NC1C(O)CC(OC2C(O)C(O)OC(CO)C2O)(C(=O)O)OC1C(O)C(O)CO` (stereo not drawn) [3′SGal, Neu5Acα3Gal], the “Binding to RgCBM40 detected by STD NMR” value at RgCBM40 [2] was “detected”.

In the case of `CC(=O)N[C@H]1[C@H]([C@H](O)[C@H](O)CO)O[C@@](O[C@H]2[C@@H](O)[C@@H](CO)O[C@@H](O[C@H]3[C@H](O)[C@@H](NC(C)=O)C(O)O[C@@H]3CO)[C@@H]2O)(C(=O)O)C[C@@H]1O` (stereo partly drawn) [3′SLN, Neu5Acα3LacNAcβ], the “Binding to RgCBM40 detected by STD NMR” value at RgCBM40 [2] is listed as “detected”. Besides, the “Binding of RgGH33 D282A on sialoglycan microarray” value with RgGH33 D282A is “interacted weakly”.

On to Neu5Acα3Galβ3GalNAcβ3Lac, for which the “Binding of RgGH33 D282A on sialoglycan microarray” value in the assay on RgGH33 D282A is listed as “interacted weakly”.

“Neu5Gc9Acα3Galβ3GalNAcβR1 [Neu5Gc9Ac-TF]”: the “Binding intensity on sialoglycan microarray, fold less” value at RgCBM40 [1] is 5–10 fold.

The values above are taken from publication PMC5736709, “Unravelling the specificity and mechanism of sialic acid recognition by the gut symbiont Ruminococcus gnavus” (Nature Communications, 2017).
